Here are results for one compound from ChEMBL document CHEMBL1133235, “Kinetic characterisation of ene-diol-based inhibitors of alpha-amylase” (Bioorg Med Chem Lett, 2000).

The subject of the assay is alpha-amylase (Hordeum vulgare). Put plainly: Percent inhibition of Alpha-amylase activity was determined at 5 mM. The note with it: malt.

As usually defined, the inhibition is the relative decrease from the control value, in per cent. Low readings indicate little suppression, high ones strong suppression. With `O=C(O)/C(O)=C(\O)C(=O)O`, the inhibition was found to be 92%.
